Experiments:
[1] = tested on: MOOVA (Monochoria); test: Preemergence weed control under flooded paddy conditions; format: in vivo, Monochoria vaginalis; conditions: rated 3-4 weeks after treatment
How it was run: (§1)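 Greenhouse paddy assay. Acetone/water (50/50 v/v) solutions dosed into flood water, equivalent to about 0.0313 to 0.500 kg/ha active ingredient, over seeds planted 0.5 cm deep in silt loam. Score: 0-9 visual, based on stand, vigor, malformation, size and chlorosis, 3 to 4 weeks after treatment.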

[2] = tested on: AMBEL (Ragweed, Common); test: Postemergence herbicidal evaluation; format: in vivo, Ambrosia artemisifolia
How it was run: (§2)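 Each compound, dispersed in an acetone/water mix (50/50) carrying 0.5% TWEEN 20, is nozzle-sprayed at 40 psi on approximately two-week-old seedlings at about 0.0156–0.500 kg/ha. Plants are assessed 4–5 weeks afterward on a 0–9 scale relative to control; duplicate tests are averaged.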

[3] = tested on: ORYSAT (Rice, Tebonnet); test: Postemergence herbicidal evaluation; format: in vivo, Oryza sativa, (L.) Tebonnet
How it was run: as §2

[4] = tested on: SAGPY (Arrowhead (Pygmaea)); test: Preemergence weed control under flooded paddy conditions; format: in vivo, Sagittaria pygmaea; conditions: rated 3-4 weeks after treatment
How it was run: as §1

[5] = tested on: CYPIR (Rice Flatsedge); test: Postemergence weed control under flooded paddy conditions; format: in vivo, Cyperus iria; conditions: postemergence weeds, 3-4 weeks after treatment
How it was run: (§3)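 With weeds 3 to 5 cm tall and rice at the 1.5 to 2.5 leaf stage, containers were flooded and water held 1.5 to 3 cm above soil. Compounds in 50/50 v/v aqueous/acetone went into the flood water at about 0.0313 to 0.500 kg/ha a.i. Effects were visually rated 0–9 against controls after three to four weeks in the greenhouse.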

[6] = tested on: ABUTH (Velvetleaf); test: Preemergence herbicidal evaluation; format: in vivo, Abutilon theophrasti; conditions: rated 4-5 weeks after treatment
How it was run: (§4)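 Rating at 4–5 wk post-spray on a 0–9 visual scale vs control. Application: aqueous acetone, ~0.0156–0.500 kg/ha, to soil surface after seeding, preemergence.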

[7] = tested on: ECHCG (Barnyardgrass); test: Postemergence herbicidal evaluation; format: in vivo, Echinochloa crus-galli
How it was run: as §2

[8] = tested on: SETVI (Foxtail, Green); test: Preemergence herbicidal evaluation; format: in vivo, Setaria viridis; conditions: rated 4-5 weeks after treatment
How it was run: as §4

[9] = tested on: SETVI (Foxtail, Green); test: Postemergence herbicidal evaluation; format: in vivo, Setaria viridis
How it was run: as §2

[10] = tested on: TRZAWR (Wheat, Winter, cv Riband); test: Postemergence herbicidal evaluation; format: in vivo, Triticum aestivum
How it was run: as §2

[11] = tested on: SAGPY (Arrowhead (Pygmaea)); test: Postemergence weed control under flooded paddy conditions; format: in vivo, Sagittaria pygmaea; conditions: postemergence weeds, 3-4 weeks after treatment
How it was run: as §3

[12] = tested on: CASOB (Sicklepod); test: Preemergence herbicidal evaluation; format: in vivo, Cassia obtusifolia; conditions: rated 4-5 weeks after treatment
How it was run: as §4

[13] = tested on: ABUTH (Velvetleaf); test: Postemergence herbicidal evaluation; format: in vivo, Abutilon theophrasti
How it was run: as §2

[14] = tested on: GLXMAW (Soybean, Williams); test: Postemergence herbicidal evaluation; format: in vivo, Glycine max, (L.) Merr. cv Williams
How it was run: as §2

## O=C(O)CC1SC(=Nc2cc(N3C(=O)C4=C(CCCC4)C3=O)c(F)cc2Cl)N(CC(=O)O)C1=O (stereo not drawn) [Compound 48, 2-{[2-Chloro-5-(1-cyclohexene-1,2-dicarboximido)-4-fluorophenyl]imino}-4-oxo-3,5-thiazolidinediacetic acid]
[1]; 0.1250 kg/ha
  Herbicidal rating MOOVA: 3.0
[1]; 0.2500 kg/ha
  Herbicidal rating MOOVA: 6.0
[2]; Rate 0.0156 kg/ha
  Postemergence herbicidal rating AMBEL: 3.0
[2]; Rate 0.0313 kg/ha
  Postemergence herbicidal rating AMBEL: 5.0
[2]; Rate 0.0625 kg/ha
  Postemergence herbicidal rating AMBEL: 9.0
[3]; Rate 0.0156 kg/ha
  Postemergence herbicidal rating ORYSAT: 0.5
[3]; Rate 0.0313 kg/ha
  Postemergence herbicidal rating ORYSAT: 0.5
[3]; Rate 0.0625 kg/ha
  Postemergence herbicidal rating ORYSAT: 2.0
[4]; 0.1250 kg/ha
  Herbicidal rating SAGPY: 3.0
[4]; 0.2500 kg/ha
  Herbicidal rating SAGPY: 6.0
[5]; rate 0.1250 kg/ha
  Herbicidal rating CYPIR: 2.0
[5]; rate 0.2500 kg/ha
  Herbicidal rating CYPIR: 5.0
[6]; rate 0.0156 kg/ha
  Preemergence herbicidal rating ABUTH: 0.0
[6]; rate 0.0313 kg/ha
  Preemergence herbicidal rating ABUTH: 0.0
[6]; rate 0.0625 kg/ha
  Preemergence herbicidal rating ABUTH: 4.0
[6]; rate 0.1250 kg/ha
  Preemergence herbicidal rating ABUTH: 9.0
[6]; rate 0.2500 kg/ha
  Preemergence herbicidal rating ABUTH: 9.0
[7]; Rate 0.0156 kg/ha
  Postemergence herbicidal rating ECHCG: 0.0
[7]; Rate 0.0313 kg/ha
  Postemergence herbicidal rating ECHCG: 2.0
[7]; Rate 0.0625 kg/ha
  Postemergence herbicidal rating ECHCG: 2.0
[8]; rate 0.0156 kg/ha
  Preemergence herbicidal rating SETVI: 0.0
[8]; rate 0.0313 kg/ha
  Preemergence herbicidal rating SETVI: 0.0
[8]; rate 0.0625 kg/ha
  Preemergence herbicidal rating SETVI: 0.0
[8]; rate 0.1250 kg/ha
  Preemergence herbicidal rating SETVI: 0.0
[8]; rate 0.2500 kg/ha
  Preemergence herbicidal rating SETVI: 0.0
[9]; Rate 0.0156 kg/ha
  Postemergence herbicidal rating SETVI: 0.0
[9]; Rate 0.0313 kg/ha
  Postemergence herbicidal rating SETVI: 0.0
[9]; Rate 0.0625 kg/ha
  Postemergence herbicidal rating SETVI: 2.0
[10]; Rate 0.0156 kg/ha
  Postemergence herbicidal rating TRZAWR: 5.0
[10]; Rate 0.0313 kg/ha
  Postemergence herbicidal rating TRZAWR: 5.0
[10]; Rate 0.0625 kg/ha
  Postemergence herbicidal rating TRZAWR: 5.0
[11]; rate 0.1250 kg/ha
  Herbicidal rating SAGPY: 3.0
[11]; rate 0.2500 kg/ha
  Herbicidal rating SAGPY: 6.0
[12]; rate 0.0156 kg/ha
  Preemergence herbicidal rating CASOB: 0.0
[12]; rate 0.0313 kg/ha
  Preemergence herbicidal rating CASOB: 0.0
[12]; rate 0.0625 kg/ha
  Preemergence herbicidal rating CASOB: 0.0
[12]; rate 0.1250 kg/ha
  Preemergence herbicidal rating CASOB: 0.0
[12]; rate 0.2500 kg/ha
  Preemergence herbicidal rating CASOB: 3.0
[13]; Rate 0.0156 kg/ha
  Postemergence herbicidal rating ABUTH: 9.0
[13]; Rate 0.0313 kg/ha
  Postemergence herbicidal rating ABUTH: 9.0
[13]; Rate 0.0625 kg/ha
  Postemergence herbicidal rating ABUTH: 9.0
[14]; Rate 0.0156 kg/ha
  Postemergence herbicidal rating GLXMAW: 5.5
[14]; Rate 0.0313 kg/ha
  Postemergence herbicidal rating GLXMAW: 6.0
[14]; Rate 0.0625 kg/ha
  Postemergence herbicidal rating GLXMAW: 7.5

## CCOC(=O)CN1C(=O)C(Cc2ccccc2OC(C)C(=O)OC)SC1=Nc1cc(-n2c(=O)cc(C(F)(F)F)n(C)c2=O)c(F)cc1Cl (stereo not drawn) [Compound 50, 2-{{2-Chloro-5-[3,6-dihydro-3-methyl-2,6-dioxo-4-(trifluoromethyl)-1(2H)-pyrimidinyl]-4-fluoro-phenyl}imino}-5-(o-hydroxybenzyl)-4-oxo-3-thiazolidineacetic acid, ethyl ester, ester with methyl lactate]
[1]; 0.0313 kg/ha
  Herbicidal rating MOOVA: 0.0
[1]; 0.0625 kg/ha
  Herbicidal rating MOOVA: 0.0
[1]; 0.1250 kg/ha
  Herbicidal rating MOOVA: 3.0
[1]; 0.2500 kg/ha
  Herbicidal rating MOOVA: 7.0
[2]; Rate 0.0156 kg/ha
  Postemergence herbicidal rating AMBEL: 9.0
[2]; Rate 0.0313 kg/ha
  Postemergence herbicidal rating AMBEL: 9.0
[2]; Rate 0.0625 kg/ha
  Postemergence herbicidal rating AMBEL: 9.0
[3]; Rate 0.0156 kg/ha
  Postemergence herbicidal rating ORYSAT: 1.0
[3]; Rate 0.0313 kg/ha
  Postemergence herbicidal rating ORYSAT: 1.0
[3]; Rate 0.0625 kg/ha
  Postemergence herbicidal rating ORYSAT: 2.0
[4]; 0.0313 kg/ha
  Herbicidal rating SAGPY: 2.0
[4]; 0.0625 kg/ha
  Herbicidal rating SAGPY: 2.0
[4]; 0.1250 kg/ha
  Herbicidal rating SAGPY: 3.0
[4]; 0.2500 kg/ha
  Herbicidal rating SAGPY: 3.0
[5]; rate 0.0313 kg/ha
  Herbicidal rating CYPIR: 0.0
[5]; rate 0.0625 kg/ha
  Herbicidal rating CYPIR: 0.0
[5]; rate 0.1250 kg/ha
  Herbicidal rating CYPIR: 0.0
[5]; rate 0.2500 kg/ha
  Herbicidal rating CYPIR: 0.0
[6]; rate 0.0625 kg/ha
  Preemergence herbicidal rating ABUTH: 9.0
[6]; rate 0.1250 kg/ha
  Preemergence herbicidal rating ABUTH: 9.0
[6]; rate 0.2500 kg/ha
  Preemergence herbicidal rating ABUTH: 9.0
[7]; Rate 0.0156 kg/ha
  Postemergence herbicidal rating ECHCG: 0.0
[7]; Rate 0.0313 kg/ha
  Postemergence herbicidal rating ECHCG: 0.0
[7]; Rate 0.0625 kg/ha
  Postemergence herbicidal rating ECHCG: 2.0
[8]; rate 0.0625 kg/ha
  Preemergence herbicidal rating SETVI: 0.0
[8]; rate 0.1250 kg/ha
  Preemergence herbicidal rating SETVI: 0.0
[8]; rate 0.2500 kg/ha
  Preemergence herbicidal rating SETVI: 0.0
[9]; Rate 0.0156 kg/ha
  Postemergence herbicidal rating SETVI: 0.0
[9]; Rate 0.0313 kg/ha
  Postemergence herbicidal rating SETVI: 0.0
[9]; Rate 0.0625 kg/ha
  Postemergence herbicidal rating SETVI: 2.0
[10]; Rate 0.0156 kg/ha
  Postemergence herbicidal rating TRZAWR: 3.0
[10]; Rate 0.0313 kg/ha
  Postemergence herbicidal rating TRZAWR: 3.5
[10]; Rate 0.0625 kg/ha
  Postemergence herbicidal rating TRZAWR: 4.5
[11]; rate 0.0313 kg/ha
  Herbicidal rating SAGPY: 2.0
[11]; rate 0.0625 kg/ha
  Herbicidal rating SAGPY: 2.0
[11]; rate 0.1250 kg/ha
  Herbicidal rating SAGPY: 3.0
[11]; rate 0.2500 kg/ha
  Herbicidal rating SAGPY: 3.0
[12]; rate 0.0625 kg/ha
  Preemergence herbicidal rating CASOB: 0.0
[12]; rate 0.1250 kg/ha
  Preemergence herbicidal rating CASOB: 9.0
[12]; rate 0.2500 kg/ha
  Preemergence herbicidal rating CASOB: 9.0
[13]; Rate 0.0156 kg/ha
  Postemergence herbicidal rating ABUTH: 6.0
[13]; Rate 0.0313 kg/ha
  Postemergence herbicidal rating ABUTH: 9.0
[13]; Rate 0.0625 kg/ha
  Postemergence herbicidal rating ABUTH: 9.0
[14]; Rate 0.0156 kg/ha
  Postemergence herbicidal rating GLXMAW: 5.5
[14]; Rate 0.0313 kg/ha
  Postemergence herbicidal rating GLXMAW: 5.5
[14]; Rate 0.0625 kg/ha
  Postemergence herbicidal rating GLXMAW: 5.5
